Experimental data taken from ChEMBL document CHEMBL5678818, “Discovery of potent SOS1 inhibitors that block RAS activation via disruption of the RAS-SOS1 interaction” (Proc Natl Acad Sci U S A, 2019).

Legend:
[1] = target: T1, Son of sevenless homolog 1 (Homo sapiens) (UniProt Q07889); experiment: Stabilization of N-terminal His10-tagged wild-type recombinant human SOS1 catalytic domain (564 to 1049 residues) expressed in Escherichia coli assessed as change in melting temperature at 100 uM with heating from 25 to 85 degreeC by thermal shift assay
T1 sequence (whole entry): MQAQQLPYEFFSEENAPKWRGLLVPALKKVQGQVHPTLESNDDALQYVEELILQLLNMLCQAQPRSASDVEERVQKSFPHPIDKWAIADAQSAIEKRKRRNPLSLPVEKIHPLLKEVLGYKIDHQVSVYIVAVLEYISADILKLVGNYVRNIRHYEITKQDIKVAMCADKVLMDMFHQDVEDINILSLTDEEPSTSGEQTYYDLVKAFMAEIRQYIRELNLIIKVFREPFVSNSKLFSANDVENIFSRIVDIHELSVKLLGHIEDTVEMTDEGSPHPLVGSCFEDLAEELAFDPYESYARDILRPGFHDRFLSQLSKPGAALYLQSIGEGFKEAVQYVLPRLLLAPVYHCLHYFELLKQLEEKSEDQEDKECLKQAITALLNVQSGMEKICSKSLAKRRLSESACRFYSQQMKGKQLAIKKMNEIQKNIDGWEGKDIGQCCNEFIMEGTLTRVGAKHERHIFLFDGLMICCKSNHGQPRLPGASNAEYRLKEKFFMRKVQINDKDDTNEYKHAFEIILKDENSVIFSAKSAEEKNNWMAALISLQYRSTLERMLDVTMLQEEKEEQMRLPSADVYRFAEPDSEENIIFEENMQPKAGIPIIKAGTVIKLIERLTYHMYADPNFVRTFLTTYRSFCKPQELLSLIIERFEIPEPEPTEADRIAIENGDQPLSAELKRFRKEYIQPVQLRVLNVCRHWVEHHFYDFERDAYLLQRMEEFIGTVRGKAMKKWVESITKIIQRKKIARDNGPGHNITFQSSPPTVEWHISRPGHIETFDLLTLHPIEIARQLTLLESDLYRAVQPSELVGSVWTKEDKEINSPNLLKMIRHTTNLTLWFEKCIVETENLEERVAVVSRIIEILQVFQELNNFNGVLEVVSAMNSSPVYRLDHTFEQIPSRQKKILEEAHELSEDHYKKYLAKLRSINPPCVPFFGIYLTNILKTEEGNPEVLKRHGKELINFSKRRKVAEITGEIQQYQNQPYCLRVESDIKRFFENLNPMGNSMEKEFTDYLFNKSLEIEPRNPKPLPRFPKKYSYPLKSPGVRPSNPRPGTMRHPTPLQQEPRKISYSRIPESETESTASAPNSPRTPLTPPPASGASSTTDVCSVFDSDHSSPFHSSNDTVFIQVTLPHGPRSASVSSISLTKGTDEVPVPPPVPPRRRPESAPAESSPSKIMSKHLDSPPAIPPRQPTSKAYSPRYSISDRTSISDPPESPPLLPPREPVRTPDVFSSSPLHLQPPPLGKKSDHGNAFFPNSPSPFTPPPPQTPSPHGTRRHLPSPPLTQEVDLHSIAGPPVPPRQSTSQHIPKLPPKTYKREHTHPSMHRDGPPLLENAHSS

[2] = test system: Tyrosine-protein kinase ABL1 (Homo sapiens), P00519 [T315I]; experiment: Inhibition of phosphorylated ABL1 T315I mutant (unknown origin) assessed as residual activity at 1000 nM by KINOMEscan analysis relative to control
[3] = target: RAC-gamma serine/threonine-protein kinase (Homo sapiens) (UniProt Q9Y243); experiment: Inhibition of AKT3 (unknown origin) assessed as residual activity at 1000 nM by KINOMEscan analysis relative to control
[4] = target: Casein kinase II subunit alpha (Homo sapiens) (UniProt P68400); experiment: Inhibition of CSNK2A1 (unknown origin) assessed as residual activity at 1000 nM by KINOMEscan analysis relative to control
[5] = test system: Epidermal growth factor receptor (Homo sapiens), P00533 [UNDEFINED MUTATION]; experiment: Inhibition of EGFR L747-S752del/P753S mutant (unknown origin) assessed as residual activity at 1000 nM by KINOMEscan analysis relative to control
[6] = test system: Epidermal growth factor receptor (Homo sapiens), P00533 [L861Q]; experiment: Inhibition of EGFR L861Q mutant (unknown origin) assessed as residual activity at 1000 nM by KINOMEscan analysis relative to control
[7] = test system: Epidermal growth factor receptor (Homo sapiens), P00533 [T790M]; experiment: Inhibition of EGFR T790M mutant (unknown origin) assessed as residual activity at 1000 nM by KINOMEscan analysis relative to control
[8] = target: Fibroblast growth factor receptor 3 (Homo sapiens) (UniProt P22607); experiment: Inhibition of FGFR3 (unknown origin) assessed as residual activity at 1000 nM by KINOMEscan analysis relative to control
[9] = target: Homeodomain-interacting protein kinase 1 (Homo sapiens) (UniProt Q86Z02); experiment: Inhibition of HIPK1 (unknown origin) assessed as residual activity at 1000 nM by KINOMEscan analysis relative to control
[10] = target: Serine/threonine-protein kinase PAK 6 (Homo sapiens) (UniProt Q9NQU5); experiment: Inhibition of PAK6 (unknown origin) assessed as residual activity at 1000 nM by KINOMEscan analysis relative to control
[11] = test system: Phosphatidylinositol 4,5-bisphosphate 3-kinase catalytic subunit alpha isoform (Homo sapiens), P42336 [I800L]; experiment: Inhibition of PIK3CA I800L mutant (unknown origin) assessed as residual activity at 1000 nM by KINOMEscan analysis relative to control
[12] = target: Ribosomal protein S6 kinase alpha-5 (Homo sapiens) (UniProt O75582); experiment: Inhibition of N-terminal RPS6KA5 kinetic domain 1 (unknown origin) assessed as residual activity at 1000 nM by KINOMEscan analysis relative to control
[13] = target: Ribosomal protein S6 kinase alpha-6 (Homo sapiens) (UniProt Q9UK32); experiment: Inhibition of N-terminal RSK4 […] domain 1 (unknown origin) assessed as residual activity at 1000 nM by KINOMEscan analysis relative to control
[14] = target: SRSF protein kinase 3 (Homo sapiens) (UniProt Q9UPE1); experiment: Inhibition of SRPK3 (unknown origin) assessed as residual activity at 1000 nM by KINOMEscan analysis relative to control
Chain of SRSF protein kinase 3 (Homo sapiens) (Q9UPE1 whole entry, looked up): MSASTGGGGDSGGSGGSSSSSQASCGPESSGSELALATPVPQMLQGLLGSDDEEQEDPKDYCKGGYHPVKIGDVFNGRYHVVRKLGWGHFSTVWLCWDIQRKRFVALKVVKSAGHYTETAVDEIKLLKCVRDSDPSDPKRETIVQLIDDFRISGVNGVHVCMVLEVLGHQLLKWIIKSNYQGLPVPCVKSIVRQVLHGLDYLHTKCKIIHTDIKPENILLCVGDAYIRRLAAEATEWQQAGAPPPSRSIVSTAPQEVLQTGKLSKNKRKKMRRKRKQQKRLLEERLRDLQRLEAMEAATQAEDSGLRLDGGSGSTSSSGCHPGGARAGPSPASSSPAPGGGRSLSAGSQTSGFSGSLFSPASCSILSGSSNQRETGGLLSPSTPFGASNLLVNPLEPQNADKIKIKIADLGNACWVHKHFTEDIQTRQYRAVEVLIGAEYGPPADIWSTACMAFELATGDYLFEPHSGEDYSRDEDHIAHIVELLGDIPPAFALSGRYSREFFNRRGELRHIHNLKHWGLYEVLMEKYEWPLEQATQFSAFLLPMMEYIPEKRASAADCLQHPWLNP

Chain of RAC-gamma serine/threonine-protein kinase (Homo sapiens) (Q9Y243 whole entry): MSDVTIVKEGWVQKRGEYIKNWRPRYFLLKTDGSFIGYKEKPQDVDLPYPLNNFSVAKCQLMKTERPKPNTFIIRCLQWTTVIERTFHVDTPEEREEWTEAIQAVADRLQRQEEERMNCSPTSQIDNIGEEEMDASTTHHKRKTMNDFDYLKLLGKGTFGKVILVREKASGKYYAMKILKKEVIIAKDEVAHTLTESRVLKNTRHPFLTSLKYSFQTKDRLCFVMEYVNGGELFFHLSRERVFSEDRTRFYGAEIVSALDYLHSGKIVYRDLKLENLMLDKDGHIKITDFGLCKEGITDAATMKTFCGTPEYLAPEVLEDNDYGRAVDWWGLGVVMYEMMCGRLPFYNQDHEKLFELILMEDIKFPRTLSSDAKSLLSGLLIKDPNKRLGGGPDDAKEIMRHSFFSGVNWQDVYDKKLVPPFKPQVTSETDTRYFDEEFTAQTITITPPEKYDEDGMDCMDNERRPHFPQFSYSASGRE
Chain of Homeodomain-interacting protein kinase 1 (Homo sapiens) (Q86Z02 whole entry, looked up): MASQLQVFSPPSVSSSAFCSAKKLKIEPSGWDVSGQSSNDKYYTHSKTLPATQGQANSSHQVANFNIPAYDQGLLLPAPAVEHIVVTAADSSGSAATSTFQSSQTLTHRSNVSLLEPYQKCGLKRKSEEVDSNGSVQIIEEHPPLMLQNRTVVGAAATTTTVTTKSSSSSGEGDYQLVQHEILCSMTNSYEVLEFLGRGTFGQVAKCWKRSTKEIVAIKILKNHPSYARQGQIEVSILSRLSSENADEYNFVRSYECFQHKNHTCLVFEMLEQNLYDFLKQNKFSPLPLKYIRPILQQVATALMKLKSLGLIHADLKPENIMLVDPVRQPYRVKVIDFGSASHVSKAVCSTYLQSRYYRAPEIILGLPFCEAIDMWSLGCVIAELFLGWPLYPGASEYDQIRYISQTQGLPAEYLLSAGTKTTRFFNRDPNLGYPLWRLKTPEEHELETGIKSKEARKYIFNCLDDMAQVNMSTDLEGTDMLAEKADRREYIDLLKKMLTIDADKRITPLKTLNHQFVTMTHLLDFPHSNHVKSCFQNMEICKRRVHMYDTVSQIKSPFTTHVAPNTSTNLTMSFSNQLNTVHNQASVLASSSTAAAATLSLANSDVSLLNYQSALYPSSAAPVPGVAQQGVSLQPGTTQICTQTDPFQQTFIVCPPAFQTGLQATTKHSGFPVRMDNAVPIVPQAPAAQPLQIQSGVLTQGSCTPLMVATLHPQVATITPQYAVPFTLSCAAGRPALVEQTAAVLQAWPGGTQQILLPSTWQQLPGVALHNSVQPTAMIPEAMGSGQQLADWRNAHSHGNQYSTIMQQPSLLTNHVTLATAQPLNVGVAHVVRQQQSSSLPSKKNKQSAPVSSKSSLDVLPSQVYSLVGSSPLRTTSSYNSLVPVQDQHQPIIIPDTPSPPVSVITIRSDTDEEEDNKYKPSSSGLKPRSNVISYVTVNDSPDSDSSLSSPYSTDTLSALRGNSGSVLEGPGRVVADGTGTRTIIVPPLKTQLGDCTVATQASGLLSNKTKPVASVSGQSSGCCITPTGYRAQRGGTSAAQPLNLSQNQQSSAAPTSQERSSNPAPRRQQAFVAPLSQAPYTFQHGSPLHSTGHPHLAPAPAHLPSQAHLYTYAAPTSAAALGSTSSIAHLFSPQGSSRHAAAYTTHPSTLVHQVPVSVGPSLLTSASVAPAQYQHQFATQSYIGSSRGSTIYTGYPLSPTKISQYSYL
Chain of Fibroblast growth factor receptor 3 (Homo sapiens) (P22607 23-806 limits assumed): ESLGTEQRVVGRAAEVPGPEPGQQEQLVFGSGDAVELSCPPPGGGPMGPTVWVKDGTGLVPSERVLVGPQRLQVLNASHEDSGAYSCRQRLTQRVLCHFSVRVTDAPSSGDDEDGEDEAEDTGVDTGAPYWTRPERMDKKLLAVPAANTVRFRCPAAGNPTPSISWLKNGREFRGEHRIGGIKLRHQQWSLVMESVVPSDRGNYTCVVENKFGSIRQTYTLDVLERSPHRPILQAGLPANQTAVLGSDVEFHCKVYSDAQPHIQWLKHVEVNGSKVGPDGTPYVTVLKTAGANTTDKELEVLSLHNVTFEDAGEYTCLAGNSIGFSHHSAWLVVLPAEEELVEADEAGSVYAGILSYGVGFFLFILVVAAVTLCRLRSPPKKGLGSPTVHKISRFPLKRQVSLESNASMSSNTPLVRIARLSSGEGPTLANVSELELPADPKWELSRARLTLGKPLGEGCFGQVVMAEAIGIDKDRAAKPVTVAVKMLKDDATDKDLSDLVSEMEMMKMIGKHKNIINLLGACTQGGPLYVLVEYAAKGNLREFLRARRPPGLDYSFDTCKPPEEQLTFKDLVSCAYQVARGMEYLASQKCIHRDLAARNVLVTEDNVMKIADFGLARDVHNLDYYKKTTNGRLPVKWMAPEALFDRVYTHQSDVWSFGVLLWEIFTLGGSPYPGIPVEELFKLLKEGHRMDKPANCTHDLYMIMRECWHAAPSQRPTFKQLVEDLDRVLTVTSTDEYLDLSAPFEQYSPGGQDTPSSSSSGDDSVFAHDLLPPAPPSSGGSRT
Chain of Phosphatidylinositol 4,5-bisphosphate 3-kinase catalytic subunit alpha isoform (Homo sapiens), P42336 [I800L] (P42336 whole entry I800L, the tested form may be a part, canonical isoform): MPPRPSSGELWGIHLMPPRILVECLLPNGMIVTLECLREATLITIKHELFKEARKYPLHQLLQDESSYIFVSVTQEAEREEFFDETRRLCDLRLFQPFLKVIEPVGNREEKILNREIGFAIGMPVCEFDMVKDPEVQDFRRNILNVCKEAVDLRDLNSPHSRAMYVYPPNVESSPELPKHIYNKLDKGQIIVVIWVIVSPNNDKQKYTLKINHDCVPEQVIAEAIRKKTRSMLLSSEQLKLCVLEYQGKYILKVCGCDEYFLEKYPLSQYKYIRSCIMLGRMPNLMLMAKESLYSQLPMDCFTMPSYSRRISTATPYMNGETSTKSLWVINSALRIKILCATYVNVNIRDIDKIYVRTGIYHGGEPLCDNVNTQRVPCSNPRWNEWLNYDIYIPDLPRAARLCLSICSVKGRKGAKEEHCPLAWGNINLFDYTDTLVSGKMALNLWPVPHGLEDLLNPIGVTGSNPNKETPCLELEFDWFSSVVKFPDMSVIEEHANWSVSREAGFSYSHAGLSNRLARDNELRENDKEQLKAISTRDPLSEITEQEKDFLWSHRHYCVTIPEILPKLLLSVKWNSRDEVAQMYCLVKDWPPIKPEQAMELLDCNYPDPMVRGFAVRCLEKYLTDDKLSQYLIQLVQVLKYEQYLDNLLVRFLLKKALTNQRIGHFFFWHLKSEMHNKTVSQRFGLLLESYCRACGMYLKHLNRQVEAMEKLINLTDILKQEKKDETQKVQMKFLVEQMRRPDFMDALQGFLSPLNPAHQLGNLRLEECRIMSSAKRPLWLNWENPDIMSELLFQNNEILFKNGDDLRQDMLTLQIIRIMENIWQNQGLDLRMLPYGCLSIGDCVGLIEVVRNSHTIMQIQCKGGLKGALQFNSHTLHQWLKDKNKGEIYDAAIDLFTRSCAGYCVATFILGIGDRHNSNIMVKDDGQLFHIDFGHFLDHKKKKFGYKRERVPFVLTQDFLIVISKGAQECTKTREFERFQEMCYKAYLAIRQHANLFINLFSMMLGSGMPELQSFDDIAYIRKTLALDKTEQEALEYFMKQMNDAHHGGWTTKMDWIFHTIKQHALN
Chain of Ribosomal protein S6 kinase alpha-5 (Homo sapiens) (O75582 whole entry, looked up, the tested form may be a part): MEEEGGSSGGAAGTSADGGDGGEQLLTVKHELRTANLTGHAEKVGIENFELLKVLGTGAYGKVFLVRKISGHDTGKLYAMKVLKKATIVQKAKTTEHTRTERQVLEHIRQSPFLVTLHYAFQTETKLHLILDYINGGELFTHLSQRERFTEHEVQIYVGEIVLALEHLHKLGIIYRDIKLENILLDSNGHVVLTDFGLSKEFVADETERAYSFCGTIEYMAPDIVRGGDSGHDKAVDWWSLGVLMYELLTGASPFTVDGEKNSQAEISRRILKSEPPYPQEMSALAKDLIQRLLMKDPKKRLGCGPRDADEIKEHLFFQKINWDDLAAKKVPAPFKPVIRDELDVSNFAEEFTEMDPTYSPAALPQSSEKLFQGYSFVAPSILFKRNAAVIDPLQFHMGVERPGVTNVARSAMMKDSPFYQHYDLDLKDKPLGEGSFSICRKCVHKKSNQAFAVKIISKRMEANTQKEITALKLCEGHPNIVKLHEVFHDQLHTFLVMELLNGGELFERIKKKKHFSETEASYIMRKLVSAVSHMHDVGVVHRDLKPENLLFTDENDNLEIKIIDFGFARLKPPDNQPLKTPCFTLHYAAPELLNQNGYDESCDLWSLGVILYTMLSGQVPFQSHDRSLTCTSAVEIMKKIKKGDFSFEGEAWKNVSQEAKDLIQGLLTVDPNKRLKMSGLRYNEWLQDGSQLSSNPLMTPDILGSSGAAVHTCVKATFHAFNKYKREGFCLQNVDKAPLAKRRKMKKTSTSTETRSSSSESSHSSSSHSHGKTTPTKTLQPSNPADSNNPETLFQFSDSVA

| Compound | ΔTm [1] [°C] | Activity [2] [%] | Activity [3] [%] | Activity [4] [%] | Activity [5] [%] | Activity [6] [%] | Activity [7] [%] | Activity [8] [%] | Activity [9] [%] | Activity [10] [%] | Activity [11] [%] | Activity [12] [%] | Activity [13] [%] | Activity [14] [%] |
| --- | --- | --- | --- | --- | --- | --- | --- | --- | --- | --- | --- | --- | --- | --- |
| CNCc1ccccc1-c1csc([C@@H](C)Nc2nc(C)nc3cc(OC)c(OC)cc23)c1 [BAY-293] | 3.17 | – | – | – | – | – | – | – | – | – | – | – | – | – |
| COc1cc2nc(C)nc(N[C@H](C)c3cccc(-c4cn[nH]c4)c3)c2cc1OC | – | 99 | 84 | 70 | 93 | 86 | 87 | 100 | 67 | 88 | 63 | 92 | 78 | 93 |
| COc1cc2ncnc(N[C@H](C)c3cccc4ccccc34)c2cc1OC | 2.5 | 96 | 100 | 100 | 9.3 | 1.1 | 81 | 100 | 89 | 91 | 96 | 99 | 100 | 100 |
